Data as given in ChEMBL document CHEMBL3621041, “Optimization of a Novel Binding Motif to (E)-3-(3,5-Difluoro-4-((1R,3R)-2-(2-fluoro-2-methylpropyl)-3-methyl-2,3,4,9-tetrahydro-1H-pyrido[3,4-b]indol-1-yl)phenyl)acrylic Acid (AZD9496), a Potent and Orally Bioavailable Selective Estrogen Receptor Downregulator and Antagonist” (J Med Chem, 2015).
Converted amounts (≈) assume the structure as drawn. The source made the active and inactive calls. No cut-off for these calls is given here.

Legend:
[1] = molecular target: T1, Progesterone receptor (Homo sapiens, UniProt P06401); assay: Agonist activity at progesterone receptor in human MCF7 cells; format: cell-based
T1 sequence (P06401 whole entry): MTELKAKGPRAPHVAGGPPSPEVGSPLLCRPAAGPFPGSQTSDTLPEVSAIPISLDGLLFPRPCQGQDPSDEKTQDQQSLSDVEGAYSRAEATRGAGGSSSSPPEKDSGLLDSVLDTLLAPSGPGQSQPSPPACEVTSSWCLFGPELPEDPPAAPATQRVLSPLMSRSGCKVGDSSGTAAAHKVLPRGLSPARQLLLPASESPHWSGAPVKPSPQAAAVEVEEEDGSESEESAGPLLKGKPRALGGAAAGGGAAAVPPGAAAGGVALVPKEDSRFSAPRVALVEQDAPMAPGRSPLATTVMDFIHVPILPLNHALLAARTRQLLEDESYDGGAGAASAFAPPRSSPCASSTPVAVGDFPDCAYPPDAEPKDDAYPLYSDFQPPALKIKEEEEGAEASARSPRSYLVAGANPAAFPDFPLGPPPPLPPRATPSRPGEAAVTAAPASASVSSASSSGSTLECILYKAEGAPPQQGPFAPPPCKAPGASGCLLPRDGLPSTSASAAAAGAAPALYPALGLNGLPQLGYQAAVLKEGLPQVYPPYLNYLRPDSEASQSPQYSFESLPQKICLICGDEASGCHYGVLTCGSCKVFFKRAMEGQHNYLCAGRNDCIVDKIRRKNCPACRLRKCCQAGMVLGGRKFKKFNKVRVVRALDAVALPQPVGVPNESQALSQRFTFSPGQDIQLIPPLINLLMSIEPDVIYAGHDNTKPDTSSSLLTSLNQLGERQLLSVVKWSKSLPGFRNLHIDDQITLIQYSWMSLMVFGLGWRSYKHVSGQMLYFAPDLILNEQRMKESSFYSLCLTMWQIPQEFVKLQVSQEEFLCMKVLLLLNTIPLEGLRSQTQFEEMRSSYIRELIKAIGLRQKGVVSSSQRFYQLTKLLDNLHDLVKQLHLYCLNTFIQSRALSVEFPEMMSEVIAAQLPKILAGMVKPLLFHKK

[2] = Lipophilicity, log D of the compound at pH 7.4; format: physicochemical; settings: buffer
[3] = Thermodynamic solubility of the compound in 0.1 M phosphate buffer at pH 7.4 after 24 hrs; format: physicochemical; settings: read-out: Therm_solubility
[4] = Fraction unbound in Han Wistar rat 10% plasma by equilibrium dialysis; format: ADME, cell-free
[5] = Intrinsic clearance in rat cryopreserved hepatocytes assessed per 10^6 cells; format: ADME, cell-based, Hepatocyte; settings: read-out: CLH
[6] = Intrinsic clearance in human cryopreserved hepatocytes assessed per 10^6 cells; format: ADME, cell-based, Hepatocyte; settings: read-out: CLH
[7] = molecular target: T2, Androgen receptor (Homo sapiens, UniProt P10275); assay: Binding affinity to androgen receptor (unknown origin)
T2 sequence (P10275 whole entry): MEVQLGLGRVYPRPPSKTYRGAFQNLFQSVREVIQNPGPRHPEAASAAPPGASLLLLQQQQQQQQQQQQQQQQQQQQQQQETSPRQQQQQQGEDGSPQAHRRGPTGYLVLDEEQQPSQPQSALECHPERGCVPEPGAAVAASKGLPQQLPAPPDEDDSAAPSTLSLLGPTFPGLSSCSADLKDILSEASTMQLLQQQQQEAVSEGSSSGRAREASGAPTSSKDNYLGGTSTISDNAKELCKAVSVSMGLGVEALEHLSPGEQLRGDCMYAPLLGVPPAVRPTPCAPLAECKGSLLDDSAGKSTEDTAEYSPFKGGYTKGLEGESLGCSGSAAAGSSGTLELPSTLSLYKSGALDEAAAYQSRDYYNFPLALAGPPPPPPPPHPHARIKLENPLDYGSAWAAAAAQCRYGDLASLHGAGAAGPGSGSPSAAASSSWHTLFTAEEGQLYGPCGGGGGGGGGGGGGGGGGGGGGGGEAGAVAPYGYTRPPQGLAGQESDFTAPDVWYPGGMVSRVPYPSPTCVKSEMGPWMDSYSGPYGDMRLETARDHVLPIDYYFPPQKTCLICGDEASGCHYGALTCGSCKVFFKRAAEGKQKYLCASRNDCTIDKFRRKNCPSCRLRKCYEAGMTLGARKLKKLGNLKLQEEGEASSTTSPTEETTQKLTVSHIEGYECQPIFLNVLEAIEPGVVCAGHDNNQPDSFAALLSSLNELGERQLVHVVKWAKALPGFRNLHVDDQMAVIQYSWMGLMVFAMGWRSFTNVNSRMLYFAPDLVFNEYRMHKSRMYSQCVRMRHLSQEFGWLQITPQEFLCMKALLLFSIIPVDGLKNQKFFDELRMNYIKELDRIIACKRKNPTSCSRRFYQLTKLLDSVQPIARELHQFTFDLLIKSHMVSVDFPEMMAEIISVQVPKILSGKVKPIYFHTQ

[8] = molecular target: T1, Progesterone receptor; assay: Binding affinity to progesterone receptor (unknown origin)
[9] = molecular target: T3, Glucocorticoid receptor (Homo sapiens, UniProt P04150); assay: Binding affinity to glucocorticoid receptor (unknown origin)
T3 sequence (P04150 whole entry): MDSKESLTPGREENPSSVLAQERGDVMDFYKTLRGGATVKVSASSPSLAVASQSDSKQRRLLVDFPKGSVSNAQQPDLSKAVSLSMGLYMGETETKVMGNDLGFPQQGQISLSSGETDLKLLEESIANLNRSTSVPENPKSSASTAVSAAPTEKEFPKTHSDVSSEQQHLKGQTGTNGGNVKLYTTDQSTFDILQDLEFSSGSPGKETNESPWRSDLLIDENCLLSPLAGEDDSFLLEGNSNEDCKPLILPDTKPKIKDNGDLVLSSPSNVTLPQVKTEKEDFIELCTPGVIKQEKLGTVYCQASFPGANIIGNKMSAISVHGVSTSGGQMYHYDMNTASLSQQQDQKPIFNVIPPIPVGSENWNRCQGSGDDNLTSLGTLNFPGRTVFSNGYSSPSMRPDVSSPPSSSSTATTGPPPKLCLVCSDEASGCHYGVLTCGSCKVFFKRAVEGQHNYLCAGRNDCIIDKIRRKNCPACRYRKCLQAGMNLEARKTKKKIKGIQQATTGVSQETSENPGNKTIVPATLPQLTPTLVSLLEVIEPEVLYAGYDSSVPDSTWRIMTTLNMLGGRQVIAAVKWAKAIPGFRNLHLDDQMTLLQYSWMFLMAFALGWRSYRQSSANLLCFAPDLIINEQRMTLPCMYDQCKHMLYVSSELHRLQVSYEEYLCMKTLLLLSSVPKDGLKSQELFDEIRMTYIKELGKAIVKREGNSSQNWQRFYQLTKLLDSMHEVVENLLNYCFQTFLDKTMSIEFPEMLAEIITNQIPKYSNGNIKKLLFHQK

[10] = molecular target: T4, Estrogen receptor (Homo sapiens, UniProt P03372)
T4 sequence (P03372 whole entry): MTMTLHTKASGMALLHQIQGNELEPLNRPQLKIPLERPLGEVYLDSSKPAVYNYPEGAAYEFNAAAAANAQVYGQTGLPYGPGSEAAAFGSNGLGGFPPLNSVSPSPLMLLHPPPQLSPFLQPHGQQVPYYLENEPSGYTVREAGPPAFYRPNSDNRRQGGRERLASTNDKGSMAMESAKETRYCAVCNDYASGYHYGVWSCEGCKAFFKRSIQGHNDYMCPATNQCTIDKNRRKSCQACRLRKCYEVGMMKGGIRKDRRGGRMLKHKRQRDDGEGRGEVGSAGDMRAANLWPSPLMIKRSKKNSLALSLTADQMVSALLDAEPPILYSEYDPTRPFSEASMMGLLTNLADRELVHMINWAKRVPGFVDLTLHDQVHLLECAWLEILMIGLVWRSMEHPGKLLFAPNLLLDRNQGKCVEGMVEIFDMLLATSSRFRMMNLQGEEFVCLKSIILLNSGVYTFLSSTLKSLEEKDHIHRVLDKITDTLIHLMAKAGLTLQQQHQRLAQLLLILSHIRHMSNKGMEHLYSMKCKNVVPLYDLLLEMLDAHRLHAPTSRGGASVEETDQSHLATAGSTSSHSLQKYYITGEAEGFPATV
Description: Binding affinity to ERalpha receptor (unknown origin)

[11] = molecular target: T4, Estrogen receptor; remark: listed apart in the source
Description: Antagonist activity at ERalpha receptor in human MCF7 cells

[12] = Fraction unbound in human 10% plasma by equilibrium dialysis; format: ADME, cell-free
[13] = Volume of distribution at steady state in Alderley Park beagle dog at 2.5 umol/kg, iv and 5 umol/kg, po; format: ADME, organism-based, Canis lupus familiaris; settings: in vivo, read-out: Vdss
[14] = Clearance in Alderley Park beagle dog at 2.5 umol/kg, iv and 5 umol/kg, po; format: ADME, organism-based, Canis lupus familiaris; settings: in vivo
[15] = Oral bioavailability in Alderley Park beagle dog at 5 umol/kg; format: ADME, organism-based, Canis lupus familiaris; settings: in vivo
[16] = Volume of distribution at steady state in Han Wistar rat at 2.2 umol/kg, iv and 4.5 umol/kg, po; format: ADME, organism-based; settings: in vivo, read-out: Vdss
[17] = Clearance in Han Wistar rat at 2.2 umol/kg, iv and […] umol/kg, po; format: ADME, organism-based; settings: in vivo
[18] = Oral bioavailability in Han Wistar rat at 4.5 umol/kg; format: ADME, organism-based; settings: in vivo
[19] = Volume of distribution at steady state in SCID mouse at 2.3 umol/kg, iv and 5.6 umol/kg, po; format: ADME, organism-based; settings: in vivo, read-out: Vdss
[20] = Clearance in SCID mouse at 2.3 umol/kg, iv and 5.6 umol/kg, po; format: ADME, organism-based; settings: in vivo
[21] = Oral bioavailability in SCID mouse at 5.6 umol/kg; format: ADME, organism-based; settings: in vivo
[22] = test system: MCF7; assay: Antitumor activity against human MCF7 cells xenografted in mouse assessed as tumor growth inhibition administered orally daily once; format: functional
[23] = test system: MCF7; assay: Antitumor activity against human MCF7 cells xenografted in mouse assessed as tumor regression at 5 mg/kg, po qd; format: functional, organism-based
[24] = test system: MCF7; assay: cells; settings: Homo sapiens, MCF7, read-out: pIC50 (converted)
Description: Antiproliferative activity against human MCF7 cells

[25] = Volume of distribution at steady state in Han Wistar rat at 5 umol/kg, iv and 13 umol/kg, po; format: ADME, organism-based; settings: in vivo, read-out: Vdss
[26] = Clearance in Han Wistar rat at 5 umol/kg, iv and 13 umol/kg, po; format: ADME, organism-based; settings: in vivo
[27] = Oral bioavailability in Han Wistar rat at 13 umol/kg; format: ADME, organism-based; settings: in vivo
[28] = Volume of distribution at steady state in CD1 mouse at 5 umol/kg, iv and 13 umol/kg, po; format: ADME, organism-based; settings: in vivo, read-out: Vdss
[29] = Clearance in CD1 mouse at 5 umol/kg, iv and 13 umol/kg, po; format: ADME, organism-based; settings: in vivo
[30] = Oral bioavailability in CD1 mouse at 13 umol/kg; format: ADME, organism-based; settings: in vivo

Row | SMILES | IC50 [1] | logD [2] | solubility thermodynamic at 24 h [3] | fraction unbound [4] | hepatocyte CLint [5] | hepatocyte CLint [6] | IC50 [10] | IC50 [11] | fraction unbound [12] | Vd [13] | clearance [14] | bioavailability [15] | IC50 [24] | further results
1 | OCCN1CCc2c([nH]c3ccccc23)C1c1ccc(Cl)cc1 (racemic) | > 100 µM | 3.7 | 15 µM (≈ 4.9 µg/mL) | 0.045 | 300 µL/min/1e6 cells | 70 µL/min/1e6 cells | 2040 nM | 1170 nM |  |  |  |  |  | IC50 ([7]; read-out: pIC50 (converted)): > 31.6 µM; IC50 [8]: > 31.6 µM; IC50 ([9]; read-out: pIC50 (converted)): > 31.6 µM
2 | C[C@@H]1Cc2c([nH]c3ccccc23)[C@@H](c2c(F)cc(/C=C/C(=O)O)cc2F)N1CC(C)(C)F [AZD-9496] |  | 2.8 | 110 µM (≈ 48.7 µg/mL) | 0.0037 | 4.2 µL/min/1e6 cells | 32 µL/min/1e6 cells |  |  | 0.0026 | 2.2 L/kg | 0.28 mL/min/kg | 79% | 0.0398 nM | IC50 ([7]; read-out: IC50): 30 µM; IC50 ([9]; read-out: IC50): 9.2 µM; Vd [16]: 0.43 L/kg; clearance [17]: 1 mL/min/kg; bioavailability [18]: 63%; Vd [19]: 2.2 L/kg; clearance [20]: 43 mL/min/kg; bioavailability [21]: 128%; growth inhibition (GI) [22]: Dose-dependent effect; Activity [23]: Active
3 | CC(C)CN1[C@H](c2ccc(/C=C/C(=O)O)cc2)c2[nH]c3ccccc3c2C[C@H]1C | > 100 µM | 2.6 | > 1000 µM | 0.0069 | 18 µL/min/1e6 cells | 40 µL/min/1e6 cells | 6.46 nM | 2.09 nM | 0.0051 | 0.3 L/kg | 0.96 mL/min/kg | 111% | 0.776 nM | Vd [25]: 1.1 L/kg; clearance [26]: 6.2 mL/min/kg; bioavailability [27]: 80%; Vd [28]: 3.7 L/kg; clearance [29]: 21 mL/min/kg; bioavailability [30]: 86%
